From patent US9512132B2, “Pyrazole compounds as CB2 agonists” (Hoffmann-La Roche Inc., priority 2013, dated 2016)

Tests used:
human CB1 receptor = human CB1 receptor (Homo sapiens (Human), UniProt P21554); assay: cAMP assay, CHO cells expressing human CB1 receptors; type: cell-based; conditions: functional cAMP assay, CHO cells expressing human CB1; read-out: human CB1 EC50
Experimental: (§1) CHO cells expressing human CB1 or CB2 receptors are seeded 17-24 hours prior to the experiment 50.000 cells per well in a black 96 well plate with flat clear bottom (Corning Costar #3904) in DMEM (Invitrogen No. 31331), lx HT supplement, with 10% fetal calf serum and incubated at 5% CO2 and 37° C. in a humidified incubator. The growth medium was exchanged with Krebs Ringer Bicarbonate buffer with 1 mM IBMX and incubated at 30° C. for 30 min. Compounds were added to a final assay volume of 100 μl and incubated for 30 min at 30° C. Using the cAMP-Nano-TRF detection kit the assay (Roche Diagnostics) was stopped by the addition of 50 μl lysis reagent (Tris, NaCl, 1.5% Triton X100, 2.5% NP40, 10% NaN3) and 50 μl detection solutions (20 μM mAb Alexa700-cAMP 1:1, and 48 μM Ruthenium-2-AHA-cAMP) and shaken for 2 h at room temperature. The time-resolved energy transfer is measured by a TRF reader (Evotec Technologies GmbH), equipped with a ND:YAG laser as excitation source. The plate is measured twice with the excitation at 355 nm and at the emission with a delay of 100 ns and a gate of 100 ns, total exposure time 10 s at 730 (bandwidth 30 nm) or 645 nm (bandwidth 75 nm), respectively. The FRET signal is calculated as follows: FRET=T730-Alexa730-P(T645-B645) with P=Ru730-B730/Ru645-B645, where T730 is the test well measured at 730 nM, T645 is the test well measured at 645 nm, B730 and B645 are the buffer controls at 730 nm and 645 nm, respectively. cAMP content is determined from the function of a standard curve spanning from 10 μM to 0.13 nM cAMP.
(§2) EC50 values were determined using Activity Base analysis (ID Business Solution, Limited). The EC50 values for a wide range of cannabinoid agonists generated from this assay were in agreement with the values published in the scientific literature.

human CB2 receptor = human CB2 receptor (Homo sapiens (Human), UniProt P34972); assay: cAMP assay, CHO cells expressing human CB2 receptors; type: cell-based; conditions: functional cAMP assay, CHO cells expressing human CB2; read-out: human CB2 EC50
Experimental: as §1, §2

Chain of human CB2 receptor (P34972 whole entry): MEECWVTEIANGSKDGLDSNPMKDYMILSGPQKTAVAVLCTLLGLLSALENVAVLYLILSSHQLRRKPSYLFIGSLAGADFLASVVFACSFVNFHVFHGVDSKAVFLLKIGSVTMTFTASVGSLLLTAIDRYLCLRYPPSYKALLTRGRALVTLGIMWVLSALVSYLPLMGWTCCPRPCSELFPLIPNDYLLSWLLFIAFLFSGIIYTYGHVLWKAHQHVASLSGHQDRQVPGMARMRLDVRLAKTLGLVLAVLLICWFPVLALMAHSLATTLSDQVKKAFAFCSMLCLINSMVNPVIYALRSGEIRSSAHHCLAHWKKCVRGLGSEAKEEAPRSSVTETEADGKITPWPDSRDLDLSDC
Chain of human CB1 receptor (P21554 whole entry): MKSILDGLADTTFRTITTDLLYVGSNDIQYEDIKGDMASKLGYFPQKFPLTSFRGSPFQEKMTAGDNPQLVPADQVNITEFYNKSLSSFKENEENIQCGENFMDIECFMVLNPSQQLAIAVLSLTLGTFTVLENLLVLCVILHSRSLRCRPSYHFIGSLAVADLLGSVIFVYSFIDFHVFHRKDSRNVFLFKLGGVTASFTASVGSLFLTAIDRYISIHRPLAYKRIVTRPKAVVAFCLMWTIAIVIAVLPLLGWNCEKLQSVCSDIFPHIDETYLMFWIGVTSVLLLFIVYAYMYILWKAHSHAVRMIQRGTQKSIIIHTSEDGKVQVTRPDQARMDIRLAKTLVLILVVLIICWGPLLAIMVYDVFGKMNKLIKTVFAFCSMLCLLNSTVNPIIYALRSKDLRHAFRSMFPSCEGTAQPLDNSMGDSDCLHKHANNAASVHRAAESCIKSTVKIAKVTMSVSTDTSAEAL

Structure (SMILES)	EC50 (human CB1 receptor)	EC50 (human CB2 receptor)
Cc1nonc1Cn1ncc2c(N3CC[C@H](O)C3)nc(C(C)(C)C)nc21 [Example 25, (S)-1-[6-tert-Butyl-1-(4-methyl-furazan-3-ylmethyl)-1H-pyrazolo[3,4-d]pyrimidin-4-yl]-pyrrolidin-3-ol]	> 10000 nM	0.4 nM
Cc1nonc1CO[C@H]1CCN(c2nc(C(C)(C)C)nc3c2cnn3Cc2nonc2C)C1 [Example 26, 6-tert-Butyl-4-[(S)-3-(4-methyl-furazan-3-ylmethoxy)-pyrrolidin-1-yl]-1-(4-methyl-furazan-3-ylmethyl)-1H-pyrazolo[3,4-d]pyrimidine]	> 10000 nM	35.6 nM
Cn1nnnc1Cn1ncc2c(N3CC[C@H](O)C3)nc(C(C)(C)C)nc21 [Example 31, (S)-1-[6-tert-Butyl-1-(1-methyl-1H-tetrazol-5-ylmethyl)-1H-pyrazolo[3,4-d]pyrimidin-4-yl]-pyrrolidin-3-ol]	> 10000 nM	17.3 nM
CC(C)(C)c1nc(N2CCC(F)(F)C2)c2cnn(Cc3ccccc3)c2n1 [Example 2, 1-Benzyl-6-tert-butyl-4-(3,3-difluoro-pyrrolidin-1-yl)-1H-pyrazolo[3,4-d]pyrimidine]	> 10000 nM	3.3 nM
CC(C)(C)c1nc(N2CC[C@H](O)C2)c2cnn(Cc3nnnn3C3CC3)c2n1 [Example 33, (S)-1-[6-tert-Butyl-1-(1-cyclopropyl-1H-tetrazol-5-ylmethyl)-1H-pyrazolo[3,4-d]pyrimidin-4-yl]-pyrrolidin-3-ol]	> 10000 nM	8.8 nM
COc1ccc(Cn2ncc3c(N4CC[C@H](O)C4)nc(C(C)(C)C)nc32)cc1 [Example 23, (S)-1-[6-tert-Butyl-1-[(4-methoxyphenyl)methyl]-1H-pyrazolo[3,4-d]pyrimidin-4-yl]-pyrrolidin-3-ol]	> 10000 nM	5.5 nM
FC1(F)CCN(c2nc(Cl)nc3c2cnn3Cc2ccccc2C(F)(F)F)C1 [Example 37, 6-Chloro-4-(3,3-difluoropyrrolidin-1-yl)-1-[[2-(trifluoromethyl)phenyl]methyl]pyrazolo[3,4-d]pyrimidine]	> 10000 nM	17.2 nM
Cc1nonc1Cn1ncc2c(N3CCC(F)(F)C3)cc(C3CC3)nc21 [Example 28, 6-Cyclopropyl-4-(3,3-difluoro-pyrrolidin-1-yl)-1-(4-methyl-furazan-3-ylmethyl)-1H-pyrazolo[3,4-b]pyridine]	> 10000 nM	1.9 nM
Cc1nnc(Cn2ncc3c(N4CC=C(F)C4)nc(C(C)(C)C)nc32)n1C [Example 18, 6-tert-Butyl-1-(4,5-dimethyl-4H-[1,2,4]triazol-3-ylmethyl)-4-(3-fluoro-2,5-dihydro-pyrrol-1-yl)-1H-pyrazolo[3,4-d]pyrimidine]	> 10000 nM	26.2 nM
Cn1nncc1Cn1ncc2c(N3CC=C(F)C3)nc(C(C)(C)C)nc21 [Example 20, 6-tert-Butyl-4-(3-fluoro-2,5-dihydro-pyrrol-1-yl)-1-(3-methyl-3H-[1,2,3]triazol-4-ylmethyl)-1H-pyrazolo[3,4-d]pyrimidine]	> 10000 nM	1.6 nM
CC(C)(C)c1nc(N2CC[C@H](O)C2)c2cnn(Cc3ncccc3Cl)c2n1 [Example 32, (S)-1-[6-tert-Butyl-1-(3-chloro-pyridin-2-ylmethyl)-1H-pyrazolo[3,4-d]pyrimidin-4-yl]-pyrrolidin-3-ol]	> 10000 nM	1.5 nM
CC(C)(C)c1nc(N2CCC(F)(F)C2)c2cnn(CC(=O)c3ccncc3)c2n1 [Example 21, 2-[6-tert-Butyl-4-(3,3-difluoro-pyrrolidin-1-yl)-pyrazolo[3,4-d]pyrimidin-1-yl]-1-pyridin-4-yl-ethanone]	> 10000 nM	3.4 nM
COC[C@H]1CCCN1c1nc(C(C)(C)C)nc2c1cnn2Cc1nonc1C [Example 36, 6-tert-Butyl-4-((R)-2-methoxymethyl-pyrrolidin-1-yl)-1-(4-methyl-furazan-3-ylmethyl)-1H-pyrazolo[3,4-d]pyrimidine]	> 10000 nM	1.4 nM
Cc1nnc(Cn2ncc3c(N4CCC(F)(F)C4)nc(C(C)(C)C)nc32)n1C [Example 17, 6-tert-Butyl-4-(3,3-difluoro-pyrrolidin-1-yl)-1-(4,5-dimethyl-4H-[1,2,4]triazol-3-ylmethyl)-1H-pyrazolo[3,4-d]pyrimidine]	> 10000 nM	3 nM
Cn1nnnc1Cn1ncc2c(N3CCC(F)(F)C3)nc(C(C)(C)C)nc21 [Example 15, 6-tert-Butyl-4-(3,3-difluoro-pyrrolidin-1-yl)-1-(1-methyl-1H-tetrazol-5-ylmethyl)-1H-pyrazolo[3,4-d]pyrimidine]	> 10000 nM	0.9 nM
CC(C)(C)c1nc(N2CC[C@H](O)C2)c2cnn(Cc3ccccc3C(F)(F)F)c2n1 [Example 29, (S)-1-[6-tert-Butyl-1-[(2-trifluoromethylphenyl)methyl]-1H-pyrazolo[3,4-d]pyrimidin-4-yl]pyrrolidin-3-ol]	> 10000 nM	1.9 nM
Cc1nonc1Cn1ncc2c(N3CCC(F)(F)C3)nc(C(C)(C)C)nc21 [Example 9, 6-tert-Butyl-4-(3,3-difluoro-pyrrolidin-1-yl)-1-(4-methyl-furazan-3-ylmethyl)-1H-pyrazolo[3,4-d]pyrimidine]	> 10000 nM	0.5 nM
CC(C)(C)c1nc(N2CCC(F)(F)C2)c2cnn(Cc3nnnn3C3CC3)c2n1 [Example 16, 6-tert-Butyl-1-(1-cyclopropyl-1H-tetrazol-5-ylmethyl)-4-(3,3-difluoro-pyrrolidin-1-yl)-1H-pyrazolo[3,4-d]pyrimidine]	> 10000 nM	0.6 nM
Cc1nonc1Cn1ncc2c(N3CCC(F)(F)C3)nc(C3CC3)cc21 [Example 27, 6-Cyclopropyl-4-(3,3-difluoro-pyrrolidin-1-yl)-1-(4-methyl-furazan-3-ylmethyl)-1H-pyrazolo[4,3-c]pyridine]	> 10000 nM	42.5 nM
CC(C)(C)c1nc(N2CC[C@H](O)C2)c2cnn(Cc3ccccc3Cl)c2n1 [Example 3, (S)-1-[6-tert-Butyl-1-[(2-chlorophenyl)methyl]-1H-pyrazolo[3,4-d]pyrimidin-4-yl]-pyrrolidin-3-ol]	> 10000 nM	5.1 nM
CC(C)(C)c1nc(N2CCC(F)(F)C2)c2cnn(Cc3ccccc3C(F)(F)F)c2n1 [Example 7, 6-tert-Butyl-4-(3,3-difluoro-pyrrolidin-1-yl)-1-[(2-trifluoromethylphenyl)methyl]-1H-pyrazolo[3,4-d]pyrimidine]	> 10000 nM	1.1 nM
COC[C@H]1CCCN1c1nc(C(C)(C)C)nc2c1cnn2Cc1ccccc1C(F)(F)F [Example 35, 6-tert-Butyl-4-((R)-2-methoxymethyl-pyrrolidin-1-yl)-1-[(2-trifluoromethylphenyl)methyl]-1H-pyrazolo[3,4-d]pyrimidine]	> 10000 nM	13.3 nM
COc1ccc(Cn2ncc3c(N4CCC(F)(F)C4)nc(C(C)(C)C)nc32)cc1 [Example 1, 6-tert-Butyl-4-(3,3-difluoro-pyrrolidin-1-yl)-[(4-methoxyphenyl)methyl]-1H-pyrazolo[3,4-d]pyrimidine]	> 10000 nM	4.8 nM
CC(C)(C)c1nc(N2CC[C@H](O)C2)c2cnn(Cc3ccccc3S(C)(=O)=O)c2n1 [Example 30, (S)-1-[6-tert-Butyl-1-(2-methanesulfonyl-benzyl)-1H-pyrazolo[3,4-d]pyrimidin-4-yl]-pyrrolidin-3-ol]	> 10000 nM	2.4 nM
CC(C)(C)c1nc(N2CCC(F)(F)C2)c2cnn(C3CS(=O)(=O)C3)c2n1 [Example 13, 6-tert-Butyl-4-(3,3-difluoro-pyrrolidin-1-yl)-1-(1,1-dioxo-1λ^6-thietan-3-yl)-1H-pyrazolo[3,4-d]pyrimidine]	> 10000 nM	19.6 nM
CC(C)(C)c1nc(N2CCC(F)(F)C2)c2cnn(CC(=O)c3ccccn3)c2n1 [Example 22, 2-[6-tert-Butyl-4-(3,3-difluoro-pyrrolidin-1-yl)-pyrazolo[3,4-d]pyrimidin-1-yl]-1-pyridin-2-yl-ethanone]	> 10000 nM	8.4 nM
CC(C)(C)c1nc(N2CCC(F)(F)C2)c2cnn(Cc3ccc(F)cc3Cl)c2n1 [Example 6, 6-tert-Butyl-1-[(2-chloro-4-fluorophenyl)methyl]-4-(3,3-difluoro-pyrrolidin-1-yl)-1H-pyrazolo[3,4-d]pyrimidine]	> 10000 nM	5.9 nM
COc1ccc(Cn2ncc3c(N4CCC(F)(F)C4)cc(C4CC4)nc32)cc1 [Example 24, 6-Cyclopropyl-4-(3,3-difluoro-pyrrolidin-1-yl)-1-[(4-methoxyphenyl)methyl]-1H-pyrazolo[3,4-b]pyridine]	> 10000 nM	17.5 nM
